Laboratory results from patent US6737383B1, “Herbicidal oxadiazolidines” (priority 1999, dated 2004).

What was measured:
bedstraw = experiment: Test B pre/postemergence bedstraw; format: in vivo, Galium aparine; conditions: for Bedstraw plant response rating (0 to 10 scale): 0 is no effect
In short: (§1)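 Herbicidal effect was estimated by eye on a ten-point control scale after plants spent twelve to sixteen days in a greenhouse following soil or foliar treatment. Foliar sprays targeted plants at one to four leaves; all doses were formulated in a non-phytotoxic solvent with surfactant.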

wheat = experiment: Test B pre/postemergence wheat; format: in vivo, Triticum aestivum; conditions: for Wheat plant response rating (0 to 10 scale): 0 is no effect
In short: as §1

rice = experiment: Test B flood test rice; format: in vivo, Oryza sativa
In short: (§2)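 Read-out is a visual response score from 0 (no effect) to 10 (complete control), assigned by comparison with untreated controls. Treatment was applied at the 2-leaf stage, and plants stayed in the greenhouse for twelve to sixteen days before scoring.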

duck salad = experiment: Test B flood test duck salad; format: in vivo, Heteranthera limosa
In short: as §2

winter wheat [1] = experiment: Test E winter wheat; format: in vivo, Triticum aestivum; conditions: Postemergence
In short: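 Greenhouse test: compounds in non-phytotoxic solvent with surfactant; for postemergence, sprayed on plants at 1- to 4-leaf stage grown in 60:40 sandy loam/potting mix. Injury rated visually against untreated controls after about 21 to 28 days.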

blackgrass = experiment: Test E blackgrass; format: in vivo, Alopecurus myosuroides; conditions: Preemergence
green foxtail = experiment: Test E green foxtail; format: in vivo, Setaria viridis; conditions: Preemergence
Italian ryegrass = experiment: Test E Italian ryegrass; format: in vivo, Lolium multiflorum; conditions: Preemergence
winter wheat [2] = experiment: Test E winter wheat; format: in vivo, Triticum aestivum; conditions: Preemergence
wild oat = experiment: Test E wild oat; format: in vivo, Avena fatua; conditions: Preemergence; for Wild oat plant response rating (0 to 100 scale): Rate 250 g/ha
winter barley = experiment: Test E winter barley; format: in vivo, Hordeum vulgare; conditions: Preemergence
[3] = Postemergence, Rate 62 g/ha, scale 0 to 10, 0 is no effect, 10 is complete control
[4] = Postemergence, Rate 250 g/ha, scale 0 to 10, 0 no effect, 10 complete control
[5] = Preemergence, Rate 62 g/ha, scale 0 to 10, 0 is no effect, 10 is complete control
[6] = Preemergence, Rate 125 g/ha, scale 0 to 10 (0 no effect, 10 complete control)
[7] = Preemergence, Rate 250 g/ha, scale of 0 to 10 where 0 is no effect and 10 is complete control
[8] = Preemergence, Rate 500 g/ha, scale 0 (no effect) to 10 (complete control)
[9] = Rate 125 g/ha, Postemergence, scale 0 to 10, 0 no effect, 10 complete control
[10] = Rate 500 g/ha, Postemergence, 0 to 10 scale (0 no effect, 10 complete control)
[11] = Rate 125 g/ha, Postemergence section (flood test species), scale 0 to 10, 0 no effect, 10 complete control
[12] = Rate 500 g/ha, Postemergence section of Table B, 0 to 10 scale (0 no effect, 10 complete control)
[13] = flood test, listed under Postemergence, Rate 250 g/ha, scale 0 to 10, 0 no effect, 10 complete control
[14] = Rate 250 g/ha, 0 to 100 scale (0 no effect, 100 complete control)
[15] = Rate 500 g/ha, 0 to 100 scale, 0 no effect, 100 complete control
[16] = Rate 125 g/ha, 0 to 100 scale (0 no effect, 100 complete control)
[17] = Rate 500 g/ha, 0 to 100 scale where 0 is no effect and 100 is complete control
[18] = Rate 1000 g/ha, 0 to 100 scale, 0 is no effect and 100 is complete control
[19] = Rate 1000 g/ha, 0 to 100 scale where 0 is no effect and 100 is complete control
[20] = Postemergence, Rate 125 g/ha, scale of 0 to 10 where 0 is no effect and 10 is complete control
[21] = Preemergence, Rate 62 g/ha, scale of 0 to 10 where 0 is no effect and 10 is complete control
[22] = Preemergence, Rate 125 g/ha, 10 is complete control
[23] = Preemergence, Rate 250 g/ha, scale 0 to 10, 0 is no effect, 10 is complete control
[24] = Preemergence, Rate 500 g/ha, scale 0 to 10 (0 no effect, 10 complete control)
[25] = Rate 62 g/ha, Postemergence, scale of 0 to 10 where 0 is no effect and 10 is complete control
[26] = Rate 250 g/ha, Postemergence, scale 0 to 10, 0 is no effect, 10 is complete control
[27] = Rate 500 g/ha, Postemergence, scale 0 to 10

CC(C)N(C(=O)n1oc(=O)n(-c2ccccc2)c1=O)c1ccc(F)cc1 [Compound 38]
90: Plant response rating, Green foxtail (green foxtail; Rate 250 g/ha, 0 to 100 scale)
10: Plant response rating, Wheat (winter) (winter wheat [1]; Rate 125 g/ha, 0 to 100 scale) | Plant response rating, Wheat (winter) (winter wheat [1]; [14]) | Plant response rating, Wheat (winter) (winter wheat [1]; [15]) | Plant response rating, Wheat (winter) (winter wheat [2]; [16]) | Plant response rating, Wheat (winter) (winter wheat [2]; [17])
20: Plant response rating, I. Ryegrass (Italian ryegrass; Rate 250 g/ha, 0 to 100 scale) | Plant response rating, Wild oat (wild oat; [17])
35: Plant response rating, Blackgrass (blackgrass; [17])
25: Plant response rating, Blackgrass (blackgrass; [16])
5: Bedstraw plant response rating (bedstraw; [10])
100: Plant response rating, Green foxtail (green foxtail; [17])
80: Plant response rating, Green foxtail (green foxtail; [16]) | Plant response rating, I. Ryegrass (Italian ryegrass; [17])
45: Plant response rating, Blackgrass (blackgrass; Rate 250 g/ha, 0 to 100 scale)
0: Bedstraw plant response rating (bedstraw; [3]) | Bedstraw plant response rating (bedstraw; [4]) | Plant response rating, Bedstraw (bedstraw; [5]) | Plant response rating, Bedstraw (bedstraw; [6]) | Plant response rating, Bedstraw (bedstraw; [7]) | Bedstraw plant response rating (bedstraw; [8]) | Bedstraw plant response rating (bedstraw; [9]) | Wheat plant response rating (wheat; [3]) | Wheat plant response rating (wheat; [4]) | Plant response rating, Wheat (wheat; [5]) | Plant response rating, Wheat (wheat; [6]) | Plant response rating, Wheat (wheat; [7]) | Wheat plant response rating (wheat; [8]) | Wheat plant response rating (wheat; [9]) | Rice plant response rating (rice; [3]) | Rice plant response rating (rice; [11]) | Rice plant response rating (rice; [12]) | Rice plant response rating (rice; [13]) | Ducksalad plant response rating (duck salad; [3]) | Ducksalad plant response rating (duck salad; [12]) | Ducksalad plant response rating (duck salad; [13]) | Plant response rating, I. Ryegrass (Italian ryegrass; [16]) | Plant response rating, Wheat (winter) (winter wheat [2]; Rate 250 g/ha, 0 to 100 scale) | Plant response rating, Wild oat (wild oat; [16]) | Plant response rating, Barley (winter) (winter barley; [16]) | Plant response rating, Barley (winter) (winter barley; Rate 250 g/ha, 0 to 100 scale) | Plant response rating, Barley (winter) (winter barley; [17])

Cc1ccc(N(C(=O)n2oc(=O)n(-c3ccccc3C)c2=O)C(C)C)cc1 [Compound 40]
0: Bedstraw plant response rating (bedstraw; [3]) | Plant response rating, Bedstraw (bedstraw; [5]) | Plant response rating, Bedstraw (bedstraw; [6]) | Plant response rating, Bedstraw (bedstraw; [7]) | Bedstraw plant response rating (bedstraw; [8]) | Wheat plant response rating (wheat; [3]) | Wheat plant response rating (wheat; [4]) | Plant response rating, Wheat (wheat; [5]) | Plant response rating, Wheat (wheat; [6]) | Plant response rating, Wheat (wheat; [7]) | Wheat plant response rating (wheat; [8]) | Wheat plant response rating (wheat; [9]) | Ducksalad plant response rating (duck salad; [11]) | Plant response rating, Wheat (winter) (winter wheat [1]; [14]) | Plant response rating, Wheat (winter) (winter wheat [1]; [18]) | Plant response rating, Wheat (winter) (winter wheat [1]; [15])
60: Plant response rating, Blackgrass (blackgrass; [17]) | Plant response rating, Wild oat (wild oat; [19])
2: Bedstraw plant response rating (bedstraw; [10])
50: Plant response rating, Wild oat (wild oat; [17]) | Plant response rating, Barley (winter) (winter barley; [19])
20: Plant response rating, Wheat (winter) (winter wheat [2]; Rate 250 g/ha, 0 to 100 scale)
70: Plant response rating, Blackgrass (blackgrass; [19]) | Plant response rating, Green foxtail (green foxtail; Rate 250 g/ha, 0 to 100 scale) | Plant response rating, I. Ryegrass (Italian ryegrass; [17]) | Plant response rating, I. Ryegrass (Italian ryegrass; [19])
30: Plant response rating, I. Ryegrass (Italian ryegrass; Rate 250 g/ha, 0 to 100 scale) | Plant response rating, Wheat (winter) (winter wheat [2]; [17]) | Plant response rating, Barley (winter) (winter barley; Rate 250 g/ha, 0 to 100 scale)
40: Plant response rating, Blackgrass (blackgrass; Rate 250 g/ha, 0 to 100 scale) | Plant response rating, Wheat (winter) (winter wheat [2]; [19]) | Plant response rating, Barley (winter) (winter barley; [17])
90: Plant response rating, Green foxtail (green foxtail; [17]) | Plant response rating, Green foxtail (green foxtail; [19])

CC(C)N(C(=O)n1oc(=O)n([C@@H](C)c2ccccc2)c1=O)c1ccc(F)cc1 [Compound 167]
100: Plant response rating, Green foxtail (green foxtail; [19])
0: Bedstraw plant response rating (bedstraw; [20]) | Bedstraw plant response rating (bedstraw; [21]) | Bedstraw plant response rating (0 to 10 scale) (bedstraw; [22]) | Bedstraw plant response rating (bedstraw; [25]) | Wheat plant response rating (wheat; [21]) | Wheat plant response rating (0 to 10 scale) (wheat; [22]) | Wheat plant response rating (wheat; [23]) | Wheat plant response rating (wheat; [24]) | Plant response rating, Wheat (wheat; [26]) | Wheat plant response rating (wheat; [27])
10: Wheat (winter) plant response rating (0 to 100 scale) (winter wheat [2]; Rate 250 g/ha)
20: Plant response rating, Wheat (winter) (winter wheat [2]; [17]) | Plant response rating, Barley (winter) (winter barley; [19])
8: Plant response rating, Bedstraw (bedstraw; [26])
60: Plant response rating, Blackgrass (blackgrass; [17]) | Green foxtail plant response rating (0 to 100 scale) (green foxtail; Rate 250 g/ha)
85: Plant response rating, Green foxtail (green foxtail; [17])
3: Bedstraw plant response rating (bedstraw; [23])
65: Plant response rating, I. Ryegrass (Italian ryegrass; [17])
40: Plant response rating, Wheat (winter) (winter wheat [1]; [15]) | Plant response rating, Wild oat (wild oat; [17]) | Barley (winter) plant response rating (0 to 100 scale) (winter barley; Rate 250 g/ha) | Plant response rating, Barley (winter) (winter barley; [17])
80: Plant response rating, Blackgrass (blackgrass; [19]) | Plant response rating, I. Ryegrass (Italian ryegrass; [19])
30: Wheat (winter) plant response rating (winter wheat [1]; Rate 250 g/ha, 0 to 100 scale where 0 is no effect and 100 is complete control) | I. Ryegrass plant response rating (0 to 100 scale) (Italian ryegrass; Rate 250 g/ha) | Plant response rating, Wheat (winter) (winter wheat [2]; [19]) | Wild oat plant response rating (0 to 100 scale) (wild oat)
50: Plant response rating, Wheat (winter) (winter wheat [1]; [18]) | Blackgrass plant response rating (0 to 100 scale) (blackgrass; Rate 250 g/ha) | Plant response rating, Wild oat (wild oat; [19])
5: Bedstraw plant response rating (bedstraw; [24])

CC(C)N(C(=O)n1oc(=O)n([C@@H](C)c2ccccc2)c1=O)c1ccc(Cl)cc1 [Compound 174]
50: Plant response rating, Wheat (winter) (winter wheat [1]; [18]) | Plant response rating, Blackgrass (blackgrass; [17]) | Plant response rating, Green foxtail (green foxtail; [17]) | Plant response rating, Wheat (winter) (winter wheat [2]; [17]) | Wild oat plant response rating (0 to 100 scale) (wild oat) | Plant response rating, Wild oat (wild oat; [19])
3: Bedstraw plant response rating (bedstraw; [24])
6: Plant response rating, Bedstraw (bedstraw; [26])
4: Bedstraw plant response rating (bedstraw; [20])
0: Bedstraw plant response rating (bedstraw; [21]) | Bedstraw plant response rating (0 to 10 scale) (bedstraw; [22]) | Bedstraw plant response rating (bedstraw; [25]) | Wheat plant response rating (wheat; [21]) | Wheat plant response rating (0 to 10 scale) (wheat; [22]) | Wheat plant response rating (wheat; [23]) | Wheat plant response rating (wheat; [24]) | Plant response rating, Wheat (wheat; [26]) | Wheat plant response rating (wheat; [27]) | I. Ryegrass plant response rating (0 to 100 scale) (Italian ryegrass; Rate 250 g/ha) | Barley (winter) plant response rating (0 to 100 scale) (winter barley; Rate 250 g/ha) | Plant response rating, Barley (winter) (winter barley; [17])
40: Plant response rating, Wheat (winter) (winter wheat [1]; Rate 500 g/ha, 0 to 100 scale, 0 is no effect, 100 is complete control) | Plant response rating, I. Ryegrass (Italian ryegrass; [19]) | Plant response rating, Wheat (winter) (winter wheat [2]; [19]) | Plant response rating, Wild oat (wild oat; [17])
55: Plant response rating, Blackgrass (blackgrass; [19])
30: Blackgrass plant response rating (0 to 100 scale) (blackgrass; Rate 250 g/ha) | Green foxtail plant response rating (0 to 100 scale) (green foxtail; Rate 250 g/ha)
85: Plant response rating, Green foxtail (green foxtail; [19])
60: Wheat (winter) plant response rating (0 to 100 scale) (winter wheat [2]; Rate 250 g/ha)
10: Plant response rating, Barley (winter) (winter barley; [19])
20: Plant response rating, I. Ryegrass (Italian ryegrass; [17])
